Source: patent US12435059B2, “AMP-activated protein kinase inhibitors and methods of making and using the same” (The Regents of the University of Colorado, priority 2019, dated 2025)

Key:
468 kinases [1] = biological target: 468 kinases (Homo sapiens, UniProt P08581); test: biochemical; format: binding; settings: MET; read-out: % Inhibition @ 100 nM
468 kinases [2] = biological target: 468 kinases (Homo sapiens, UniProt Q9H4A3); test: biochemical; format: binding; settings: WNK1; read-out: % Inhibition @ 100 nM
468 kinases [3] = biological target: 468 kinases (Homo sapiens, UniProt Q8IVH8); test: biochemical; format: binding; settings: MAP4K3; read-out: % Inhibition @ 100 nM
FLT1 = FLT1 (Homo sapiens (Human), UniProt P17948); test: Kinome binding analysis at 100 nM, FLT1; settings: read-out: Percentage inhibition at 100 nM, FLT1
CSF1R-autoinhibited = CSF1R-autoinhibited (Homo sapiens (Human), UniProt P07333); test: Kinome binding analysis at 100 nM, CSF1R-autoinhibited; settings: read-out: Percentage inhibition at 100 nM, CSF1R-autoinhibited
468 kinases [4] = biological target: 468 kinases (Homo sapiens, UniProt O94921); test: biochemical; format: binding; settings: PFTK1; read-out: % Inhibition @ 100 nM
468 kinases [5] = biological target: 468 kinases (Homo sapiens, UniProt Q9H1R3); test: biochemical; format: binding; settings: MYLK2; read-out: % Inhibition @ 100 nM
468 kinases [6] = biological target: 468 kinases (Homo sapiens, UniProt Q8N752); test: biochemical; format: binding; settings: CSNK1A1L; read-out: % Inhibition @ 100 nM
468 kinases [7] = biological target: 468 kinases (Homo sapiens, UniProt Q13188); test: biochemical; format: binding; settings: MST2; read-out: % Inhibition @ 100 nM
468 kinases [8] = biological target: 468 kinases (Homo sapiens, UniProt P31749); test: biochemical; format: binding; settings: AKT1; read-out: % Inhibition @ 100 nM
468 kinases [9] = biological target: 468 kinases (Homo sapiens, UniProt Q9Y6R4); test: biochemical; format: binding; settings: MAP3K4; read-out: % Inhibition @ 100 nM

Compound | inhibition at 0.1 µM (468 kinases [1]) | inhibition at 0.1 µM (468 kinases [2]) | inhibition at 0.1 µM (468 kinases [3]) | inhibition at 0.1 µM (FLT1) | inhibition at 0.1 µM (CSF1R-autoinhibited) | inhibition at 0.1 µM (468 kinases [4]) | inhibition at 0.1 µM (468 kinases [5]) | inhibition at 0.1 µM (468 kinases [6]) | inhibition at 0.1 µM (468 kinases [7]) | inhibition at 0.1 µM (468 kinases [8]) | inhibition at 0.1 µM (468 kinases [9])
CCN(CC)CCNC(=O)c1c(C)[nH]c(/C=C2\C(=O)Nc3ccc(CCO)cc32)c1C [Compound No. 10, (Z)—N-(2-(Diethylamino)ethyl)-5-((5-(2-hydroxyethyl)-2-oxoindolin-3-ylidene)methyl)-2,4-dimethyl-1H-pyrrole-3-carboxamide] | 13% | 0% | 74% | 42% |  |  |  |  |  |  | 
CCN(CC)CCNC(=O)c1c(C)[nH]c(/C=C2\C(=O)Nc3ccc(CCC(N)=O)cc32)c1C [Compound No. 16, (Z)-5-((5-(3-Amino-3-oxopropyl)-2-oxoindolin-3-ylidene)methyl)-N-(2-(diethylamino)ethyl)-2,4-dimethyl-1H-pyrrole-3-carboxamide] |  |  |  |  | 14% | 13% | 4% | 6% | 41% | 0% | 8%
